Values joined by “and” are separate entries in the source; they are usually repeats but may differ in a detail not shown here. Equal values may be shown once.
System: HSSY-II complex spheroid growth, percent test/control
Assay: Anticancer human tumor HSSY-II cell line growth inhibition [Asc];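 also: spheroids exposed to drug for 7 days before reading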
Conditions: for viability, T/C: stronger effect = lower value
Description: Multicellular complex tumor spheroid response to apoptosis pathway targeting inhibitors Alrizomadlin, Pelcitoclax, and Dasminapant in combination with a variety of drugs and investigational agents in selected tumor cell lines
The MDM2 inhibitor alrizomadlin, the Bcl-2/Bcl-xL inhibitor pelcitoclax, and the IAPs inhibitor dasminapant were evaluated both individually and in combination with standard of care and investigational anticancer small molecules within a complex spheroid model of solid tumors. . Complex spheroids include a stromal component modeled by human endothelial cells (HUVEC) and fibroblasts modeled by human mesenchymal stem cells (MSCs). The concentration ranges selected for each drug and investigational agent were based upon clinically achievable concentrations if the clinical Cmax of the agent was known.
Compounds. The drugs and investigational agents: alrizomadlin (APG-115; NSC831270), pelcitoclax (APG-1252; NSC835773), dasminapant (APG-1387;NSC834197), TAK-243 (NSC785004), copanlisib (NSC809693), olaparib (NSC753686), talazoparib (NSC767125), cobimetinib (NSC 768068), eltanexor (KPT-8602, NSC 794443), abemaciclib (NSC 768073), sotorasib (NSC818433), adagrasib (NSC 831453), MRTX-1133 (NSC 836407), Iadademestat (ORY1001, NSC 806812), and RMC-4630 (NSC839698), were obtained from the NCI Developmental Therapeutics Program Chemical Repository. The FDA-approved anticancer drug set is available from the Developmental Therapeutics Program at https://dtp.cancer.gov/organization/dscb/obtaining/available plates.htm. […] The stock solutions were prepared in dimethyl sulfoxide (DMSO, Sigma-Aldrich, St. Louis, MO, cat. D2650) at 800-fold the tested concentration and stored at -70 degrees C prior to their use. All drugs and investigational agents were tested over a range starting from a high concentration at or near the clinical Cmax and decreasing in half-log increments. If the clinical Cmax for an agent had not been determined, the highest concentration tested was 10 microM.
The patient-derived cancer (PDC) cell lines include five colon adenocarcinomas: 186277-243-T-J2-PDC, 616215-338-R-J1-PDC, 439559-082-T-J2-PDC, 463943-066-T-J2-PDC, and 519858-162-T-J1-PDC; three pancreatic carcinomas: 323965-272-R-J2-PDC, 521955-158-R6-J3-PDC, and 521955-158-R2-J5-PDC; two uterine sarcomas: 327498-152-R-J2-PDC and 993429-296-R-J1-PDC; two rhabdomyosarcomas: 755483-174-R-J1-PDC and 772245-204-R-J1-PDC; two soft tissue sarcomas: 126254-015-R-J1-PDC and 494315-158-R-J1-PDC; two malignant fibrous histiocytomas: 317291-083-R-J1-PDC and 596521-263-R-J1-PDC; two breast carcinomas: 171881-019-R-J1-PDC and 885512-296-R-J2-PDC; and one ovarian carcinoma: 6556581-035-R-J-PDC were obtained from the NCI PDMR, (https://pdmr.cancer.gov). The established cell lines HSSY-2 synovial sarcoma (RRID:CVCL 8719), SYO-1 synovial sarcoma (RRID:CVCL_7146), MPNST malignant peripheral neural sheath tumor were obtained from the Sloan Kettering Institute. The following established cell lines were purchased from the American Type Culture Collection (ATCC, Manassas, VA), Sor the received from the NCI repository:, PANC-1 pancreatic carcinoma (CRL-1469, RRID:CVCL_0480), OVCAR-5 ovarian carcinoma (RRID:CVCL_1628), OVCAR-8 ovarian carcinoma (RRID:CVCL_1629), , MCF-7 breast carcinoma (CRL-12584, RRID:CVCL_0031), MDA-MB-231 breast carcinoma (CRL-12532, RRID:CVCL_0062), NCI-H1876 small cell lung carcinoma (CRL-5902, RRID:CVCL_1503), NCI-H510A small cell lung carcinoma (HTB-184, RRID:CVCL_1565), NCI-H1417 (CRL-5869, RRID:CVCL_1469), and NCI-H196 small cell lung carcinoma (CRL-5823, RRID:CVCL_1509). Dr. Peter Houghton (Greehey Children's Cancer Research Institute, University of Texas Health Science Center, San Antonio, TX) provided Rh-18 rhabdomyosarcoma (RRID:CVCL_1659). Pooled donor human umbilical vein endothelial cells (HUVEC, Lonza, cat. CC-2519) and human mesenchymal stem cells (hMSC, Lonza, cat. PT-2501) were purchased from Lonza (Walkersville, MD).
Cell Culture. […]

[1] = curve of first compound, second compound 0.01 µM
[2] = curve of first compound, second compound 0.0316 µM
[3] = curve of first compound, second compound 0.1 µM
[4] = curve of first compound, second compound 0.316 µM
[5] = curve of first compound, second compound 1 µM
[6] = second compound 0.01 µM, first compound 0.0316 µM
[7] = second compound 0.01 µM, first compound 0.1 µM
[8] = second compound 0.01 µM, first compound 0.316 µM
[9] = second compound 0.01 µM, first compound 1 µM
[10] = second compound 0.0316 µM, first compound 0.0316 µM
[11] = second compound 0.0316 µM, first compound 0.1 µM
[12] = second compound 0.0316 µM, first compound 0.316 µM
[13] = second compound 0.0316 µM, first compound 1 µM
[14] = second compound 0.1 µM, first compound 0.0316 µM
[15] = second compound 0.1 µM, first compound 0.1 µM
[16] = second compound 0.1 µM, first compound 0.316 µM
[17] = second compound 0.1 µM, first compound 1 µM
[18] = second compound 0.316 µM, first compound 0.0316 µM
[19] = second compound 0.316 µM, first compound 0.1 µM
[20] = second compound 0.316 µM, first compound 0.316 µM
[21] = second compound 0.316 µM, first compound 1 µM
[22] = second compound 1 µM, first compound 0.0316 µM
[23] = second compound 1 µM, first compound 0.1 µM
[24] = second compound 1 µM, first compound 0.316 µM
[25] = second compound 1 µM, first compound 1 µM

## O=C(c1cc(Cc2n[nH]c(=O)c3ccccc23)ccc1F)N1CCN(C(=O)C2CC2)CC1 + CNC(C)C(=O)NC1CN(S(=O)(=O)c2cccc(S(=O)(=O)N3CCC4CCC(C(=O)NC(c5ccccc5)c5ccccc5)N4C(=O)C(NC(=O)C(C)NC)C3)c2)CCC2CCC(C(=O)NC(c3ccccc3)c3ccccc3)N2C1=O
[1]
  IC50: 2650 nM
[2]
  IC50: 3380 nM
[3]
  IC50: 3030 nM
[4]
  IC50: 3220 nM
[5]
  IC50: 2320 nM
[6]
  viability, T/C: 89%
[7]
  viability, T/C: 102%
[8]
  viability, T/C: 91.5%
[9]
  viability, T/C: 83.5%
Second compound 0.01 µM, first compound 3.16 µM
  viability, T/C: 43.9%
Second compound 0.01 µM, first compound 10 µM
  viability, T/C: 11.6%
[10]
  viability, T/C: 86.3%
[11]
  viability, T/C: 88.3%
[12]
  viability, T/C: 87.4%
[13]
  viability, T/C: 73.3%
Second compound 0.0316 µM, first compound 3.16 µM
  viability, T/C: 53.3%
Second compound 0.0316 µM, first compound 10 µM
  viability, T/C: 7.19%
[14]
  viability, T/C: 74.5%
[15]
  viability, T/C: 81.9%
[16]
  viability, T/C: 64.6%
[17]
  viability, T/C: 73.8%
Second compound 0.1 µM, first compound 3.16 µM
  viability, T/C: 49.1%
Second compound 0.1 µM, first compound 10 µM
  viability, T/C: 10.6%
[18]
  viability, T/C: 95.1%
[19]
  viability, T/C: 90.6%
[20]
  viability, T/C: 86.9%
[21]
  viability, T/C: 67.3%
Second compound 0.316 µM, first compound 3.16 µM
  viability, T/C: 54.7%
Second compound 0.316 µM, first compound 10 µM
  viability, T/C: 9.27%
[22]
  viability, T/C: 95.3%
[23]
  viability, T/C: 96.2%
[24]
  viability, T/C: 83%
[25]
  viability, T/C: 72%
Second compound 1 µM, first compound 3.16 µM
  viability, T/C: 42%
Second compound 1 µM, first compound 10 µM
  viability, T/C: 5.51%

## O=C(c1ccc(F)c(F)c1Nc1ccc(I)cc1F)N1CC(O)([C@@H]2CCCCN2)C1 + CNC(C)C(=O)NC1CN(S(=O)(=O)c2cccc(S(=O)(=O)N3CCC4CCC(C(=O)NC(c5ccccc5)c5ccccc5)N4C(=O)C(NC(=O)C(C)NC)C3)c2)CCC2CCC(C(=O)NC(c3ccccc3)c3ccccc3)N2C1=O
[1]
  IC50: 587 nM
[2]
  IC50: 516 nM
[3]
  IC50: 472 nM
[4]
  IC50: 416 nM
[5]
  IC50: 515 nM
Second compound 0.01 µM, first compound 0.00316 µM
  viability, T/C: 76.6%
Second compound 0.01 µM, first compound 0.01 µM
  viability, T/C: 87.8%
[6]
  viability, T/C: 112%
[7]
  viability, T/C: 108%
[8]
  viability, T/C: 82.2%
[9]
  viability, T/C: 22.4%
Second compound 0.0316 µM, first compound 0.00316 µM
  viability, T/C: 95.7%
Second compound 0.0316 µM, first compound 0.01 µM
  viability, T/C: 99.8%
[10]
  viability, T/C: 99.2%
[11]
  viability, T/C: 107%
[12]
  viability, T/C: 69%
[13]
  viability, T/C: 24.4%
Second compound 0.1 µM, first compound 0.00316 µM
  viability, T/C: 93%
Second compound 0.1 µM, first compound 0.01 µM
  viability, T/C: 74.1%
[14]
  viability, T/C: 98.9%
[15]
  viability, T/C: 99.8%
[16]
  viability, T/C: 65.8%
[17]
  viability, T/C: 20.6%
Second compound 0.316 µM, first compound 0.00316 µM
  viability, T/C: 98.9%
Second compound 0.316 µM, first compound 0.01 µM
  viability, T/C: 100%
[18]
  viability, T/C: 83.1%
[19]
  viability, T/C: 111%
[20]
  viability, T/C: 59.2%
[21]
  viability, T/C: 20.4%
Second compound 1 µM, first compound 0.00316 µM
  viability, T/C: 98.3%
Second compound 1 µM, first compound 0.01 µM
  viability, T/C: 114%
[22]
  viability, T/C: 99.7%
[23]
  viability, T/C: 95.1%
[24]
  viability, T/C: 70.7%
[25]
  viability, T/C: 21.9%

## O=C(c1ccc(F)c(F)c1Nc1ccc(I)cc1F)N1CC(O)([C@@H]2CCCCN2)C1
Compound 0.00316 µM
  viability, T/C: 97.1% and 106% and 100%
Compound 0.01 µM
  viability, T/C: 99.7% and 107% and 102%
Compound 0.0316 µM
  viability, T/C: 83.1% and 103% and 102%
Compound 0.1 µM
  viability, T/C: 92.8% and 102% and 122%
Compound 0.316 µM
  viability, T/C: 73.6% and 74.8% and 78.3%
Compound 1 µM
  viability, T/C: 19.4% and 25.9% and 26%
Curve of compound
  IC50: 522 nM and 567 nM and 590 nM

## NC1CCC(NC2CC2c2ccccc2)CC1 (centres undefined)
Compound 0.000316 µM
  viability, T/C: 71.8% and 62.3% and 60.2%
Compound 0.001 µM
  viability, T/C: 68.3% and 66.5% and 58.3%
Compound 0.00316 µM
  viability, T/C: 58.7% and 61.8% and 52.4%
Compound 0.01 µM
  viability, T/C: 53.8% and 56.1% and 47%
Compound 0.0316 µM
  viability, T/C: 61% and 59.4% and 54.2%
Compound 0.1 µM
  viability, T/C: 59.8% and 53.7% and 49.7%
Curve of compound
  IC50: > 100 nM

Reference: PubChem BioAssay AID1963444 (Molecular Pharmacology Branch, DTP, NCI, 2024)
